Literature values in patent US10716959B2, “Polymer-flavonoid conjugates and hydrogels for biomedical applications” (AGENCY FOR SCIENCE, TECHNOLOGY AND RESEARCH, priority 2013, dated 2020).

Conditions: physiological temperature and pH

half-life: less than 30 min
SMILES: O=C(O[C@@H]1Cc2c(O)cc(O)cc2O[C@@H]1c1cc(O)c(O)c(O)c1)c1cc(O)c(O)c(O)c1 [EGCG, (−)-epigallocatechin-3-gallate]
